Earlier results, collected in patent US20060100282A1, “Novel diaminopropane-based metal chelators as antiviral agents” (Bioflexis, LLC, priority 2004, published 2006).

Key:
HIV-1 integrase (IN) [1] = molecular target: T1, HIV-1 integrase (IN) (Human immunodeficiency virus type 1 group M subtype B, UniProt P12497); conditions: result in words
T1 construct: HIV-1 recombinant IN (HIV-1NL 4-3 Integrase, NIH AIDS Reagent program Catalog No: 2959); purchased NIH AIDS Reagent program 2959

HIV-1 integrase (IN) [2] = molecular target: T1, HIV-1 integrase (IN); conditions: result in words; remark: listed apart in the source

SMILES	inhibition of 3′ processing (HIV-1 integrase (IN) [1])	inhibition of strand transfer reaction (HIV-1 integrase (IN) [2])
O=C(O)C(=O)CC(=O)c1cc(OCc2ccccc2)cc(OCc2ccccc2)c1 [Inhibitor 6]	do not inhibit 3′ processing	inhibit strand transfer reaction
O=C(O)C(=O)CC(=O)c1cccn1Cc1ccc(F)cc1 [Inhibitor 8]	do not inhibit 3′ processing	inhibit strand transfer reaction
